For one assay, the system named is A549 cells. Description: A549 proliferation (viability) assay, Cell Titer Fluor, 72 hours. The assay is classed as cell-based. The following applies: Homo sapiens. The essentials: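 A549 cells in RPMI 1640 with 10% dialyzed FBS were seeded at 1000 cells/well, grown 24 h, then exposed to compound (0.5% DMSO final) for 72 h at 37 °C, 5% CO2. Viability was read by Cell Titer Fluor fluorescence; EC50 from four-parameter logistic fit.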

Assay [1] has as its target T1, GLS1 (purified recombinant human GAC) (Homo sapiens, UniProt O94925).
T1 sequence (O94925 55-598 isoform O94925-3 limits assumed): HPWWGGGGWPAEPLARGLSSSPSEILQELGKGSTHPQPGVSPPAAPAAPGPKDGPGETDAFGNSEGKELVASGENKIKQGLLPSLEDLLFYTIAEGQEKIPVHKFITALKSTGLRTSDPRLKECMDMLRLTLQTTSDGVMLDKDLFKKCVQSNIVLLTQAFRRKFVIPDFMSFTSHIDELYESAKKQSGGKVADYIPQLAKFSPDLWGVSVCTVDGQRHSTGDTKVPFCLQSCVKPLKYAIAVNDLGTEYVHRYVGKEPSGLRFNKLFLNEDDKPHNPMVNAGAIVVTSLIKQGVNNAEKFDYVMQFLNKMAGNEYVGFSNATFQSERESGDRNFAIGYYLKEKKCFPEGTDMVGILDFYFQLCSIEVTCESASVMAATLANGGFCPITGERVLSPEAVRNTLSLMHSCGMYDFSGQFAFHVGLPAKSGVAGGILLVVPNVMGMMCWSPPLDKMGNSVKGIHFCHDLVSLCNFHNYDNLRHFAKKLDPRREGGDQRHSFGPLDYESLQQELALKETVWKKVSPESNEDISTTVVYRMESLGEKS
Description: GLS1 enzymatic activity assay (dual-coupled, Amplex UltraRed/resorufin). The assay is classed as biochemical. The essentials: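 GAC activity measured by coupling glutamate to glutamate oxidase and HRP, generating resorufin from Amplex UltraRed. Enzyme (2 nM) preincubated with 50 mM potassium phosphate 10 min at room temperature, then inhibitor 10 min; 1 mM glutamine substrate, 1% DMSO. Fluorescence 530/590 nm, kinetic or 20-min endpoint; IC50 from four-parameter logistic fit.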

Here are results for 20 compounds from patent US20160002204A1 (Board of Regents, The University of Texas System, priority 2014, published 2016).

pEC50, pIC50: −log10 of the molar value.

As usually defined, the pEC50 is −log10 of the EC50, conventionally taken in molar units. A higher pEC50 goes with a small EC50. A word on the pIC50: it is the IC50 on a negative log10 scale, so that one unit is a factor of ten. Compound `O=C(CC1CCC1)Nc1ccn(CCCCc2nnc(C(=O)NCc3cc(C(F)(F)F)ccn3)s2)c(=O)c1F` [Example 465, 5-{4-[4-(2-cyclobutylacetamido)-3-fluoro-2-oxo-1,2-dihydropyridin-1-yl]butyl}-N-{[4-(trifluoromethyl)pyridin-2-yl]methyl}-1,3,4-thiadiazole-2-carboxamide] showed a pEC50 with A549 cells above 7.00. Further, the negative logarithm of the IC50 (pIC50) in assay [1] was above 7.00.
The compound `O=C(NCc1ccccn1)c1ccn(CCCCn2cc(C(=O)NCc3cccc(OC(F)(F)F)c3)nn2)c(=O)c1` [Example 49, 2-oxo-N-(pyridin-2-ylmethyl)-1-{4-[4-({[3-(trifluoro-methoxy)phenyl]methyl}carbamoyl)-1H-1,2,3-triazol-1-yl]butyl}-1,2-dihydropyridine-4-carboxamide] had a pEC50 in the assay with A549 cells of 5.30 to 6.30. The pIC50 in assay [1] is 6.30 to 7.00.
For `O=C(Cc1cccc(OC(F)(F)F)c1)Nc1ccc(CCCCn2ccc(NC(=O)[C@H](O)c3ccccc3)nc2=O)nn1` [Example 101, (2R)-2-hydroxy-N-{2-oxo-1-[4-(6-{2-[3-(trifluoro-methoxy)phenyl]acetamido}pyridazin-3-yl)butyl]-1,2-dihydropyrimidin-4-yl}-2-phenylacetamide], the pEC50 with A549 cells is 6.30 to 7.00. In assay [1], the negative logarithm of the IC50 (pIC50) is above 7.00.
The matching figures for `O=C(Cc1ccccc1F)Nc1ccn(CCC(F)Cn2cc(C(=O)NCc3cncc(C(F)(F)F)c3)nn2)c(=O)c1F` (stereo not shown) [Example 361, 1-(2-fluoro-4-{3-fluoro-4-[2-(2-fluorophenyl)acetamido]-2-oxo-1,2-dihydropyridin-1-yl}butyl)-N-{[5-(trifluoromethyl)pyridin-3-yl]methyl}-1H-1,2,3-triazole-4-carboxamide]: above 7.00 and above 7.00.
In the same order, the values of `COC1CCCN(C(=O)C(=O)Nc2ccn(CCC(F)Cn3cc(C(=O)NCc4cc(OC(F)(F)F)ccc4F)nn3)c(=O)c2F)C1` (stereo not shown) [Example 433, 1-(2-fluoro-4-{3-fluoro-4-[2-(3-methoxypiperidin-1-yl)-2-oxoacetamido]-2-oxo-1,2-dihydropyridin-1-yl}butyl)-N-{[2-fluoro-5-(trifluoromethoxy)phenyl]methyl}-1H-1,2,3-triazole-4-carboxamide] are 6.30 to 7.00 and above 7.00.
In the same order, the values of `O=C(CC1CCSCC1)Nc1ccn(CCCCn2cc(C(=O)NCc3cccc(OC(F)(F)F)c3)nn2)c(=O)c1` [Example 169, 1-(4-{2-oxo-4-[2-(thian-4-yl)acetamido]-1,2-dihydropyridin-1-yl}butyl)-N-{[3-(trifluoromethoxy)phenyl]methyl}-1H-1,2,3-triazole-4-carboxamide] are 6.30 to 7.00 and above 7.00.
With `CCOC(=O)C(=O)Nc1ccn(CCC(F)Cn2cc(C(=O)NCc3cccc(OC(F)(F)F)c3)nn2)c(=O)c1F` (stereo not shown) [Example 347, ethyl [(3-fluoro-1-{3-fluoro-4-[4-({[3-(trifluoromethoxy)phenyl]methyl}carbamoyl)-1H-1,2,3-triazol-1-yl]butyl}-2-oxo-1,2-dihydropyridin-4-yl)carbamoyl]formate], in the assay on A549 cells, the negative-log EC50 (pEC50) is below 5.30. Also, the pIC50 in assay [1] was 6.30 to 7.00.
In the same order, the values of `COC1CCC(CC(=O)Nc2ccn(CCCCn3cc(C(=O)NCc4cccc(OC(F)(F)F)c4)nn3)c(=O)c2)CC1` (stereo not shown) [Example 170, 1-(4-{4-[2-(4-methoxycyclohexyl)acetamido]-2-oxo-1,2-dihydropyridin-1-yl}butyl)-N-{[3-(trifluoromethoxy)phenyl]methyl}-1H-1,2,3-triazole-4-carboxamide] are 6.30 to 7.00 and above 7.00.
The matching figures for `O=C(Cc1cccc(OC(F)(F)F)c1)Nc1ccc(CCCCn2ccc(NC(=O)Cc3ccccc3)nc2=O)nn1` [Example 75, N-{2-oxo-1-[4-(6-{2-[3-(trifluoro-methoxy)phenyl]acetamido}pyridazin-3-yl)butyl]-1,2-dihydropyrimidin-4-yl}-2-phenylacetamide]: above 7.00 and above 7.00.
In the same order, the values of `O=C(NCc1cccc(OC(F)(F)F)c1)c1cn(CC(F)CCn2ccc(COc3ccccc3)cc2=O)nn1` (stereo not shown) [Example 414, 1-(2-fluoro-4-(2-oxo-4-(phenoxymethyl)pyridin-1(2H)-yl)butyl)-N-(3-(trifluoromethoxy)benzyl)-1H-1,2,3-triazole-4-carboxamide] are 5.30 to 6.30 and above 7.00.
Take `O=C(Nc1ccn(CCCCn2cc(C(=O)NCc3cccc(OC(F)(F)F)c3)nn2)c(=O)c1)OC1CCC(F)(F)CC1` [Example 174, 4,4-difluorocyclohexyl N-(2-oxo-1-{4-[4-({[3-(trifluoro-methoxy)phenyl]methyl}carbamoyl)-1H-1,2,3-triazol-1-yl]butyl}-1,2-dihydropyridin-4-yl)carbamate]: in the assay on A549 cells, the pEC50 was 6.30 to 7.00. For the same compound, the pIC50 in assay [1] was above 7.00.
The matching figures for `O=C(Cc1cccc(OC(F)(F)F)c1)Nc1ccn(CCCCn2cc(C(=O)NCc3cccc(F)c3)nn2)c(=O)c1` [Example 66, N-[(3-fluorophenyl)methyl]-1-[4-(2-oxo-4-{2-[3-(trifluoromethoxy)phenyl]acetamido}-1,2-dihydropyridin-1-yl)butyl]-1H-1,2,3-triazole-4-carboxamide]: 5.30 to 6.30 and above 7.00.
In the same order, the values of `Nc1nnc(CCCCn2ccc(NC(=O)Cc3cccc(OC(F)(F)F)c3)nc2=O)s1` [Example 79, N-{1-[4-(5-amino-1,3,4-thiadiazol-2-yl)butyl]-2-oxo-1,2-dihydropyrimidin-4-yl}-2-[3-(trifluoromethoxy)phenyl]acetamide] are 5.30 to 6.30 and 5.30 to 6.30.
The matching figures for `CC(C)(C)OC(=O)N1CCCC(CC(=O)Nc2ccn(CCC(F)Cn3cc(C(=O)NCc4cccc(OC(F)(F)F)c4)nn3)c(=O)c2)C1` (stereo not shown) [Example 245, tert-butyl 3-{[(1-{3-fluoro-4-[4-({[3-(trifluoromethoxy)phenyl]methyl}carbamoyl)-1H-1,2,3-triazol-1-yl]butyl}-2-oxo-1,2-dihydropyridin-4-yl)carbamoyl]methyl}piperidine-1-carboxylate]: above 7.00 and above 7.00.
Take `CNC(=O)c1cn(CC(F)CCn2ccc(NC(=O)CN3CCN(C(=O)OC(C)(C)C)CC3)cc2=O)nn1` (stereo not shown) [Example 403, tert-butyl 4-{[(1-{3-fluoro-4-[4-(methylcarbamoyl)-1H-1,2,3-triazol-1-yl]butyl}-2-oxo-1,2-dihydropyridin-4-yl)carbamoyl]methyl}piperazine-1-carboxylate]: the pEC50 in the assay with A549 cells was 5.30 to 6.30. Moreover, in assay [1], the pIC50 is 6.30 to 7.00.
The matching figures for `NC(=O)CNC(=O)c1cn(CCCCn2ccc(NC(=O)Cc3cccc(OC(F)(F)F)c3)cc2=O)nn1` [Example 136, 2-({1-[4-(2-oxo-4-{2-[3-(trifluoromethoxy)phenyl]acetamido}-1,2-dihydropyridin-1-yl)butyl]-1H-1,2,3-triazol-4-yl}formamido)acetamide]: below 5.30 and 6.30 to 7.00.
The matching figures for `O=C(NCc1cccc(OC(F)(F)F)c1)c1cn(CC(F)CCn2ccc(NC(=O)C3CCCCC3)c(F)c2=O)nn1` (stereo not shown) [Example 341, 1-[4-(4-cyclohexaneamido-3-fluoro-2-oxo-1,2-dihydropyridin-1-yl)-2-fluorobutyl]-N-{[3-(trifluoromethoxy)phenyl]methyl}-1H-1,2,3-triazole-4-carboxamide]: above 7.00 and above 7.00.
In the same order, the values of `O=C(Cc1ccccn1)Nc1ccn(CCC(F)Cn2cc(C(=O)NCc3cccc(OC(F)(F)F)c3)nn2)c(=O)c1` (stereo not shown) [Example 250, 1-(2-fluoro-4-{2-oxo-4-[2-(pyridin-2-yl)acetamido]-1,2-dihydropyridin-1-yl}butyl)-N-{[3-(trifluoromethoxy)phenyl]methyl}-1H-1,2,3-triazole-4-carboxamide] are 6.30 to 7.00 and above 7.00.
Take `O=C(CC1CCNCC1)Nc1ccn(CCC(F)Cn2cc(C(=O)NCc3cccc(OC(F)(F)F)c3)nn2)c(=O)c1` (stereo not shown) [Example 280, 1-(2-fluoro-4-{2-oxo-4-[2-(piperidin-4-yl)acetamido]-1,2-dihydropyridin-1-yl}butyl)-N-{[3-(trifluoromethoxy)phenyl]methyl}-1H-1,2,3-triazole-4-carboxamide]: the pEC50 with A549 cells is 5.30 to 6.30. The pIC50 in assay [1] is 6.30 to 7.00.
As to `CC(C(=O)Nc1ccn(CCC(F)Cn2cc(C(=O)NCc3cccc(OC(F)(F)F)c3)nn2)c(=O)c1F)N1CCCCC1` (stereo not shown) [Example 337, 1-(2-fluoro-4-(3-fluoro-2-oxo-4-(2-(piperidin-1-yl)propanamido)pyridin-1(2H)-yl)butyl)-N-(3-(trifluoromethoxy)benzyl)-1H-1,2,3-triazole-4-carboxamide], the pEC50 in the assay with A549 cells was above 7.00. Moreover, in assay [1], the pIC50 was above 7.00.
